Experimental data published in US10314307B2, “(S)-abscisic acid derivatives for improving plant stress tolerance” (Valent BioSciences Corporation, priority 2015, dated 2019).

Columns and labels:
Assay type in all cases: in vivo
[1] = system: corn plants, 111 day, central corn belt variety; experiment: Corn plant chilling (growth rate); conditions: for Growth Rate, Greenhouse 7-9 d post spray / Growth Rate, Greenhouse 0-2 d post spray / Growth Rate, Growth Chamber 10° C. 2-7 d post spray: Table 3 study; for Growth Rate, Greenhouse 7-9 d post spray: after chilling; for Growth Rate, Growth Chamber 10° C. 2-7 d post spray: during chilling at 10° C.
Experimental: Corn seeds of a 111 day, central corn belt variety were planted in 2-quart pots filled with medium. After the corn grew for 10 days in the greenhouse at 24±3° C. (V2 to V3 growth stage), the plants received a foliar spray application of aqueous solutions of the test compounds containing 0.25% non-ionic surfactant with a volume equivalent to 30 gallons/acre. After spraying, plants were moved back to the greenhouse for 2 days, then moved to a growth chamber kept at 10° C. with a 16:8 light:dark cycle (cold treatment). After 5 days in the cold, plants were returned to the greenhouse for 2 days before being harvested destructively. Results of the studies comparing the growth rate of plants treated with S-ABA with 3′-methyl-(S)-ABA during the experiment are shown in Table 3. In additional studies, the effect of S-ABA and 3′-propargyl-(S)-ABA on corn growth rate in chilling studies was compared.

[2] = system: corn plants, commercial 111 day, central corn belt variety; experiment: Corn stomatal conductance; conditions: for Average Stomatal Conductance (% of Control), 6 DAS: 6 days after spraying; for Average Stomatal Conductance (% of Control), 16 DAS: 16 days after spraying
Experimental: In this greenhouse experiment, foliar spray treatments containing 3′-methyl-(S)-abscisic acid, 3′-propargyl-(S)-abscisic acid or (S)-abscisic acid were applied to corn plants to evaluate their effect on gas exchange, as measured through stomatal conductance. Corn plants of a commercial, 111 day, central corn belt variety were grown in the greenhouse under optimal conditions for five weeks and were size-matched into ten groups of five plants. Using an aerosol sprayer, each group was sprayed to drip (25 milliliters per plant) with solutions containing a non-ionic surfactant (0.125%, v/v) and water (control), 2.5 mg, 7.5 mg or 25 mg/plant 3′-methyl-(S)-abscisic acid, or 2.5 mg, 7.5 mg or 25 mg/plant 3′-propargyl-(S)-abscisic acid, or 7.5 mg, 25 mg or 75 mg/plant (5)-ABA, respectively. After spraying, plants were returned to the greenhouse for the duration of the experiment. Stomatal conductance was measured using an AP4 porometer (Delta T Devices, Cambridge, UK) and the conductance for each plant was recorded at approximately the same time of day (˜10 AM) prior to treatment application as well as 1, 2, 5, 6, 9 and 16 days post-spraying.

[3] = system: corn seed of a common inbred parental line; experiment: Corn plant emergence after seed treatment; conditions: for Delay in Median Emergence Time Compared to Control / Median Time to Emergence: 20.5° C.
Experimental: Corn seed of a common inbred parental line were treated using standard seed treatment equipment with water (control), 40 μg, 80 μg or 160 μg/seed S-ABA, 10 μg, 20 μg, 40 μg or 80 μg/seed 3′-methyl-(S)-abscisic acid, or 10 μg, 20 μg, 40 μg or 80 μg/seed 3′-propargyl-(S)-abscisic acid. Post treatment, the seeds were planted in 12×3×2″ plastic boxes containing one kilogram of sieved, pre-moistened field soil. Fifty seeds were planted in each box at three centimeter depth and two replicate boxes per treatment at 20.5° C. under constant illumination. Two replications of the experiment were incubated under constant light in a 20.5° C. growth chamber. Emergence counts were recorded almost daily until seedling emergence had ceased (42 days). Daily counts were converted to proportions of the final emergence to estimate the median emergence time for each box.

[4] = system: soybean plants; experiment: Soybean drought tolerance (stomatal conductance)
Experimental: In this study, soybean plants were grown for 10 days under ambient lab temperature conditions and illumination of 150 umol m^2 s^−1 and a 16:8 photoperiod. At spraying, the primary leaves were fully expanded and the first trifoliate leaves were partially expanded. The plants were sprayed to dampness with solutions of water, S-ABA, 3′-methyl-(S)-abscisic acid, or 3′-propargyl-(S)-abscisic acid containing 0.025% (v/v) non-ionic surfactant. At times following spraying, the conductance of the primary leaves was measured using an AP4 porometer (Delta T Devices, Cambridge, UK) to evaluate the effect on stomatal conductance. A decrease in stomatal aperture, reflected in the conductance measures, is an immediate and direct effect of applied S-ABA. To simplify the data, the controls were always set to 100%. In Table 9, the effect of spray applications on the stomatal conductance was measured.

[5] = foliar spray 30 mg/l (3.4 g/acre)
[6] = foliar spray 100 mg/l (11.4 g/acre)
[7] = foliar spray 300 mg/l (34.1 g/acre)
[8] = foliar spray 1000 mg/l (113.7 g/acre)
[9] = foliar spray 100 ppm or 2.5 mg/plant
[10] = foliar spray 300 ppm or 7.5 mg/plant
[11] = foliar spray 1000 ppm or 25 mg/plant

Compound: CC1=C(C)[C@](O)(/C=C/C(C)=C\C(=O)O)C(C)(C)CC1=O [3′-methyl-(S)-ABA, (2Z,4E)-5-((S)-1-hydroxy-2,3,6,6-tetramethyl-4-oxocyclohex-2-en-1-yl)-3-methylpenta-2,4-dienoic acid]
- Maintenance of growth under cold (10° C.) conditions ([1]; S-ABA even at 1000 mg/l (113.7 g/acre)): maintained growth
- Growth Rate, Greenhouse 7-9 d post spray [1, 5]: 2.650 cm/day
- Growth Rate, Greenhouse 0-2 d post spray ([1]; foliar spray 30 mg/l (3.4 g/acre), before chilling): 3.725 cm/day
- Growth Rate, Growth Chamber 10° C. 2-7 d post spray [1, 5]: 1.092 cm/day
- Growth Rate, Greenhouse 7-9 d post spray [1, 6]: 2.795 cm/day
- Growth Rate, Greenhouse 0-2 d post spray ([1]; foliar spray 100 mg/l (11.4 g/acre), before chilling): 4.290 cm/day
- Growth Rate, Growth Chamber 10° C. 2-7 d post spray [1, 6]: 1.084 cm/day
- Growth Rate, Greenhouse 7-9 d post spray [1, 7]: 3.565 cm/day
- Growth Rate, Greenhouse 0-2 d post spray ([1]; foliar spray 300 mg/l (34.1 g/acre), before chilling): 3.645 cm/day
- Growth Rate, Growth Chamber 10° C. 2-7 d post spray [1, 7]: 0.990 cm/day
- Growth Rate, Greenhouse 7-9 d post spray [1, 8]: 2.945 cm/day
- Growth Rate, Greenhouse 0-2 d post spray ([1]; foliar spray 1000 mg/l (113.7 g/acre), before chilling): 3.615 cm/day
- Growth Rate, Growth Chamber 10° C. 2-7 d post spray [1, 8]: 1.160 cm/day
- Plant growth initially following spraying ([1]; before chilling): initially suppressed
- Leaf area ([1]; in one of two studies, not repeatable across studies, 3′-methyl-(S)-abscisic acid at 30, 100 and 300 mg/liter): increased
- Average Stomatal Conductance (% of Control), 6 DAS [2, 9]: 93.3 % of Control
- Average Stomatal Conductance (% of Control), 16 DAS [2, 9]: 98.3 % of Control
- Average Stomatal Conductance (% of Control), 6 DAS [2, 10]: 70.6 % of Control
- Average Stomatal Conductance (% of Control), 16 DAS [2, 10]: 79.4 % of Control
- Average Stomatal Conductance (% of Control), 6 DAS [2, 11]: 69.6 % of Control
- Average Stomatal Conductance (% of Control), 16 DAS [2, 11]: 74.5 % of Control
- Relative potency resulting in a 25% reduction in transpiration, times that seen with S-ABA ([2]; regression of the data in Table 5): 1.97 times
- Additional delay in emergence in comparison with S-ABA ([3]; 80 μg/seed rate): 5.6 calendar days
- Relative potency of S-ABA, dose required to delay the median emergence time by two days ([3]; regression): 2.2 times
- Delay in Median Emergence Time Compared to Control ([3]; seed treatment 10 μg/seed): 4.9 days
- Median Time to Emergence ([3]; seed treatment 10 μg/seed): 9.7 days
- Delay in Median Emergence Time Compared to Control ([3]; seed treatment 20 μg/seed): 7.9 days
- Median Time to Emergence ([3]; seed treatment 20 μg/seed): 12.7 days
- Delay in Median Emergence Time Compared to Control ([3]; seed treatment 40 μg/seed): 11.1 days
- Median Time to Emergence ([3]; seed treatment 40 μg/seed): 16.0 days
- Delay in Median Emergence Time Compared to Control ([3]; seed treatment 80 μg/seed): 13.8 days
- Median Time to Emergence ([3]; seed treatment 80 μg/seed): 18.6 days
- Reduction in stomatal conductance at 1 day post spraying ([4]; 300 mg/l foliar spray): 89%
- Percent Conductance (stomatal conductance, control = 100%), Day 1 ([4]; foliar spray 300 mg/l, 0.3 mg/plant, Day 1): 11%
- Percent Conductance (stomatal conductance, control = 100%), Day 2 ([4]; foliar spray 300 mg/l, 0.3 mg/plant, Day 2): 18%
- Percent Conductance (stomatal conductance, control = 100%), Day 5 ([4]; foliar spray 300 mg/l, 0.3 mg/plant, Day 5): 36%
- Percent Conductance (stomatal conductance, control = 100%), Day 6 ([4]; foliar spray 300 mg/l, 0.3 mg/plant, Day 6): 68%
- Percent Conductance (stomatal conductance, control = 100%), Day 7 ([4]; foliar spray 300 mg/l, 0.3 mg/plant, Day 7): 79%
